Measured values published in patent publication US20220233549A1, “METHOD FOR ALPHAVIRUS INHIBITION” (priority 2019, published 2022).

System: CHIKV 181/clone25
Assay: CHIKV cytopathic effect (CPE) protection assay in Vero cells
Assay type: cell-based
Settings: Chikungunya virus; CHIKV 181/clone25, Vero cells, MOI=0.01, 48 hrs, protection from CPE (crystal violet, absorbance 595nm)

SMILES | EC50
CCN1C(=O)C(CC(=O)N2CCCCCC2)Sc2ncccc21 (centres unmarked) [Example 45, 3-(2-(azepan-1-yl)-2-oxoethyl)-1-ethyl-1H-pyrido[2,3-b][1,4]thiazin-2(3H)-one] | > 100 µM
CCN1C(=O)C(CC(=O)NCC2CC2)Sc2ncccc21 (centres unmarked) [Example 46, N-(cyclopropylmethyl)-2-(1-ethyl-2-oxo-2,3-dihydro-1H-pyrido[2,3-b][1,4]thiazin-3-yl)acetamide] | > 100 µM
O=C(CC1Sc2ncccc2NC1=O)NCC1CCSCC1 (centres unmarked) [Example 47, 2-(2-oxo-2,3-dihydro-1H-pyrido[2,3-b][1,4]thiazin-3-yl)-N-((tetrahydro-2H-thiopyran-4-yl)methyl)acetamide] | 10 to 49.9 µM
O=C(CC1Sc2ncccc2NC1=O)NCC1CCOCC1 (centres unmarked) [Example 48, 2-(2-oxo-2,3-dihydro-1H-pyrido[2,3-b][1,4]thiazin-3-yl)-N-((tetrahydro-2H-pyran-4-yl)methyl)acetamide] | > 100 µM
O=C(CC1Sc2ncccc2NC1=O)NCc1ccc(Cl)c(Cl)c1 (centres unmarked) [Example 49, N-(3,4-dichlorobenzyl)-2-(2-oxo-2,3-dihydro-1H-pyrido[2,3-b][1,4]thiazin-3-yl)acetamide] | > 100 µM
O=C(CC1Sc2ncccc2NC1=O)NCc1ccc(F)c(F)c1 (centres unmarked) [Example 50, N-(3,4-difluorobenzyl)-2-(2-oxo-2,3-dihydro-1H-pyrido[2,3-b][1,4]thiazin-3-yl)acetamide] | 10 to 49.9 µM
O=C(CC1Sc2ncccc2NC1=O)NCc1cc(F)c(F)c(F)c1 (centres unmarked) [Example 51, 2-(2-oxo-2,3-dihydro-1H-pyrido[2,3-b][1,4]thiazin-3-yl)-N-(3,4,5-trifluorobenzyl)acetamide] | 50 to 99.9 µM
O=C(CC1Sc2ncccc2NC1=O)NCc1cc(F)cc(F)c1 (centres unmarked) [Example 52, N-(3,5-difluorobenzyl)-2-(2-oxo-2,3-dihydro-1H-pyrido[2,3-b][1,4]thiazin-3-yl)acetamide] | > 100 µM
O=C(CC1Sc2ncccc2NC1=O)NCc1ccc(Cl)cc1 (centres unmarked) [Example 53, N-(4-chlorobenzyl)-2-(2-oxo-2,3-dihydro-1H-pyrido[2,3-b][1,4]thiazin-3-yl)acetamide] | 10 to 49.9 µM
O=C(CC1Sc2ncccc2NC1=O)NCc1cccc(Cl)c1 (centres unmarked) [Example 54, N-(3-chlorobenzyl)-2-(2-oxo-2,3-dihydro-1H-pyrido[2,3-b][1,4]thiazin-3-yl)acetamide] | > 100 µM
O=C(CC1Sc2ncccc2NC1=O)NCc1cccc(F)c1 (centres unmarked) [Example 55, N-(3-fluorobenzyl)-2-(2-oxo-2,3-dihydro-1H-pyrido[2,3-b][1,4]thiazin-3-yl)acetamide] | > 100 µM
O=C(CC1Sc2ncccc2NC1=O)NCc1ccc(F)cc1 (centres unmarked) [Example 56, N-(4-fluorobenzyl)-2-(2-oxo-2,3-dihydro-1H-pyrido[2,3-b][1,4]thiazin-3-yl)acetamide] | < 10 µM
O=C(CC1Sc2ncccc2NC1=O)NCCc1ccc(F)cc1 (centres unmarked) [Example 57, N-(4-fluorophenethyl)-2-(2-oxo-2,3-dihydro-1H-pyrido[2,3-b][1,4]thiazin-3-yl)acetamide] | 10 to 49.9 µM
O=C(CC1Sc2ncccc2NC1=O)NCCC1CCCCC1 (centres unmarked) [Example 58, N-(2-cyclohexylethyl)-2-(2-oxo-2,3-dihydro-1H-pyrido[2,3-b][1,4]thiazin-3-yl)acetamide] | 10 to 49.9 µM
O=C(CC1Sc2ccccc2NC1=O)NCC1CCCCC1 (centres unmarked) [Example 59, N-(cyclohexylmethyl)-2-(3-oxo-3,4-dihydro-2H-benzo[b][1,4]thiazin-2-yl)acetamide] | > 100 µM
O=C(CC1Sc2ncccc2NC1=O)NCC1CCC(F)(F)CC1 (centres unmarked) [Example 60, N-((4,4-difluorocyclohexyl)methyl)-2-(2-oxo-2,3-dihydro-1H-pyrido[2,3-b][1,4]thiazin-3-yl)acetamide] | 10 to 49.9 µM
CCC(CC)CNC(=O)CC1Sc2ncccc2NC1=O (centres unmarked) [Example 61, N-(2-ethylbutyl)-2-(2-oxo-2,3-dihydro-1H-pyrido[2,3-b][1,4]thiazin-3-yl)acetamide] | 10 to 49.9 µM
O=C(CC1Sc2ncccc2NC1=O)NCC1CCCCCC1 (centres unmarked) [Example 62, N-(cycloheptylmethyl)-2-(2-oxo-2,3-dihydro-1H-pyrido[2,3-b][1,4]thiazin-3-yl)acetamide] | 10 to 49.9 µM
O=C(CC1Sc2ncccc2NC1=O)NCC1CCCC1 (centres unmarked) [Example 63, N-(cyclopentylmethyl)-2-(2-oxo-2,3-dihydro-1H-pyrido[2,3-b][1,4]thiazin-3-yl)acetamide] | < 10 µM
CC(C)(C)CCNC(=O)CC1Sc2ncccc2NC1=O (centres unmarked) [Example 64, N-(3,3-dimethylbutyl)-2-(2-oxo-2,3-dihydro-1H-pyrido[2,3-b][1,4]thiazin-3-yl)acetamide] | > 100 µM
O=C(CC1Nc2ncccc2NC1=O)NCC1CCCCC1 (centres unmarked) [Example 65, N-(cyclohexylmethyl)-2-(2-oxo-1,2,3,4-tetrahydropyrido[2,3-b]pyrazin-3-yl)acetamide] | > 100 µM
CC1(CNC(=O)CC2Sc3ncccc3NC2=O)CCCCC1 (centres unmarked) [Example 66, N-((1-methylcyclohexyl)methyl)-2-(2-oxo-2,3-dihydro-1H-pyrido[2,3-b][1,4]thiazin-3-yl)acetamide] | < 10 µM

SMILES | EC50
CC(C)CCCNC(=O)CC1Sc2ncccc2NC1=O (centres unmarked) [Example 67, N-(4-methylpentyl)-2-(2-oxo-2,3-dihydro-1H-pyrido[2,3-b][1,4]thiazin-3-yl)acetamide] | 10 to 49.9 µM
CC(C)(C)CCCNC(=O)CC1Sc2ncccc2NC1=O (centres unmarked) [Example 68, N-(4,4-dimethylpentyl)-2-(2-oxo-2,3-dihydro-1H-pyrido[2,3-b][1,4]thiazin-3-yl)acetamide] | 10 to 49.9 µM
CC1(C)CCC(CNC(=O)CC2Sc3ncccc3NC2=O)CC1 (centres unmarked) [Example 69, N-((4,4-dimethylcyclohexyl)methyl)-2-(2-oxo-2,3-dihydro-1H-pyrido[2,3-b][1,4]thiazin-3-yl)acetamide] | 10 to 49.9 µM
CCCCNC(=O)CC1Sc2ncccc2NC1=O (centres unmarked) [Example 70, N-butyl-2-(2-oxo-2,3-dihydro-1H-pyrido[2,3-b][1,4]thiazin-3-yl)acetamide] | 50 to 99.9 µM
CCCCCNC(=O)CC1Sc2ncccc2NC1=O (centres unmarked) [Example 71, 2-(2-oxo-2,3-dihydro-1H-pyrido[2,3-b][1,4]thiazin-3-yl)-N-pentylacetamide] | 10 to 49.9 µM
O=C(CC1Sc2ncccc2NC1=O)NCCCC(F)(F)F (centres unmarked) [Example 72, 2-(2-oxo-2,3-dihydro-1H-pyrido[2,3-b][1,4]thiazin-3-yl)-N-(4,4,4-trifluorobutyl)acetamide] | > 100 µM
O=C(CC1CCCCC1)NCC1Sc2ncccc2NC1=O (centres unmarked) [Example 73, 2-cyclohexyl-N-((2-oxo-2,3-dihydro-1H-pyrido[2,3-b][1,4]thiazin-3-yl)methyl)acetamide] | 10 to 49.9 µM
O=C(CC1Sc2ncccc2NC1=O)NCCC(F)(F)F (centres unmarked) [Example 74, 2-(2-oxo-2,3-dihydro-1H-pyrido[2,3-b][1,4]thiazin-3-yl)-N-(3,3,3-trifluoropropyl)acetamide] | > 100 µM
CCC(C)(C)CNC(=O)CC1Sc2ncccc2NC1=O (centres unmarked) [Example 75, N-(2,2-dimethylbutyl)-2-(2-oxo-2,3-dihydro-1H-pyrido[2,3-b][1,4]thiazin-3-yl)acetamide] | < 10 µM
CCC1(CNC(=O)CC2Sc3ncccc3NC2=O)CCCCC1 (centres unmarked) [Example 76, N-((1-ethylcyclohexyl)methyl)-2-(2-oxo-2,3-dihydro-1H-pyrido[2,3-b][1,4]thiazin-3-yl)acetamide] | < 10 µM
O=C(CC1Sc2ncccc2NC1=O)NCC1(O)CCCCC1 (centres unmarked) [Example 77, N-((1-hydroxycyclohexyl)methyl)-2-(2-oxo-2,3-dihydro-1H-pyrido[2,3-b][1,4]thiazin-3-yl)acetamide] | < 10 µM
O=C(CC1Sc2ncccc2NC1=O)NCC1(F)CCCCC1 (centres unmarked) [Example 78, N-((1-fluorocyclohexyl)methyl)-2-(2-oxo-2,3-dihydro-1H-pyrido[2,3-b][1,4]thiazin-3-yl)acetamide] | < 10 µM
COC1(CNC(=O)CC2Sc3ncccc3NC2=O)CCCCC1 (centres unmarked) [Example 79, N-((1-methoxycyclohexyl)methyl)-2-(2-oxo-2,3-dihydro-1H-pyrido[2,3-b][1,4]thiazin-3-yl)acetamide] | < 10 µM
NC1(CNC(=O)CC2Sc3ncccc3NC2=O)CCCCC1 (centres unmarked) [Example 80, N-((1-aminocyclohexyl)methyl)-2-(2-oxo-2,3-dihydro-1H-pyrido[2,3-b][1,4]thiazin-3-yl)acetamide] | > 100 µM
CCCOC1(CNC(=O)CC2Sc3ncccc3NC2=O)CCCCC1 (centres unmarked) [Example 81, 2-(2-oxo-2,3-dihydro-1H-pyrido[2,3-b][1,4]thiazin-3-yl)-N-((1-propoxycyclohexyl)methyl)ace-tamide] | 10 to 49.9 µM
COCC1(CNC(=O)CC2Sc3ncccc3NC2=O)CCCCC1 (centres unmarked) [Example 82, N-((1-(methoxymethyl)cyclohexyl)meth-yl)-2-(2-oxo-2,3-dihydro-1H-pyrido[2,3-b][1,4]thiazin-3-yl)acetamide] | 50 to 99.9 µM
O=C(CC1Sc2cnccc2NC1=O)NCC1CCCCC1 (centres unmarked) [Example 83, N-(cyclohexylmethyl)-2-(2-oxo-2,3-dihydro-1H-pyrido[3,4-b][1,4]thiazin-3-yl)acetamide] | > 100 µM
O=C(CC1Sc2ccncc2NC1=O)NCC1CCCCC1 (centres unmarked) [Example 84, N-(cyclohexylmethyl)-2-(3-oxo-3,4-dihydro-2H-pyrido[4,3-b][1,4]thiazin-2-yl)acetamide] | > 100 µM
O=C(CC1Sc2ncccc2NC1=O)NCC1=CCCCC1 (centres unmarked) [Example 85, N-(cyclohex-1-en-1-ylmethyl)-2-(2-oxo-2,3-dihydro-1H-pyrido[2,3-b][1,4]thiazin-3-yl)acetamide] | 10 to 49.9 µM
O=C(CC1Sc2ncccc2NC1=O)NCC1CC=CCC1 (centres unmarked) [Example 86, N-(cyclohex-3-en-1-ylmethyl)-2-(2-oxo-2,3-dihydro-1H-pyrido[2,3-b][1,4]thiazin-3-yl)acetamide] | < 10 µM
O=C(CC1Sc2ncc(Br)cc2NC1=O)NCC1CCCCC1 (centres unmarked) [Example 87, 2-(7-bromo-2-oxo-2,3-dihydro-1H-pyrido[2,3-b][1,4]thiazin-3-yl)-N-(cyclohexylmethyl)acetamide] | 10 to 49.9 µM
O=C(CC1Cc2ncccc2NC1=O)NCC1CCCCC1 (centres unmarked) [Example 88, N-(cyclohexylmethyl)-2-(2-oxo-1,2,3,4-tetrahydro-1,5-naphthyridin-3-yl)acetamide] | 10 to 49.9 µM
